This is an account of results in US20240002361A1, “COMPOSITIONS AND METHODS FOR BLOCKING NEUROPILIN RECEPTOR 1 FOR THE TREATMENT OF PAIN AND PREVENTION OF VIRAL ENTRY” (Arizona Board of Regents on Behalf of the University of …, priority 2020, published 2024).

Test [1] addresses T1, NRP-1/VEGF-A interaction (Homo sapiens, UniProt O14786).
T1 construct: coated with the extracellular domain of human NRP-1 (containing the a1a2 and the b1b2 regions); purchased Fisher, Hampton, NH 50-101-8343
T1 sequence (O14786 22-856 limits assumed): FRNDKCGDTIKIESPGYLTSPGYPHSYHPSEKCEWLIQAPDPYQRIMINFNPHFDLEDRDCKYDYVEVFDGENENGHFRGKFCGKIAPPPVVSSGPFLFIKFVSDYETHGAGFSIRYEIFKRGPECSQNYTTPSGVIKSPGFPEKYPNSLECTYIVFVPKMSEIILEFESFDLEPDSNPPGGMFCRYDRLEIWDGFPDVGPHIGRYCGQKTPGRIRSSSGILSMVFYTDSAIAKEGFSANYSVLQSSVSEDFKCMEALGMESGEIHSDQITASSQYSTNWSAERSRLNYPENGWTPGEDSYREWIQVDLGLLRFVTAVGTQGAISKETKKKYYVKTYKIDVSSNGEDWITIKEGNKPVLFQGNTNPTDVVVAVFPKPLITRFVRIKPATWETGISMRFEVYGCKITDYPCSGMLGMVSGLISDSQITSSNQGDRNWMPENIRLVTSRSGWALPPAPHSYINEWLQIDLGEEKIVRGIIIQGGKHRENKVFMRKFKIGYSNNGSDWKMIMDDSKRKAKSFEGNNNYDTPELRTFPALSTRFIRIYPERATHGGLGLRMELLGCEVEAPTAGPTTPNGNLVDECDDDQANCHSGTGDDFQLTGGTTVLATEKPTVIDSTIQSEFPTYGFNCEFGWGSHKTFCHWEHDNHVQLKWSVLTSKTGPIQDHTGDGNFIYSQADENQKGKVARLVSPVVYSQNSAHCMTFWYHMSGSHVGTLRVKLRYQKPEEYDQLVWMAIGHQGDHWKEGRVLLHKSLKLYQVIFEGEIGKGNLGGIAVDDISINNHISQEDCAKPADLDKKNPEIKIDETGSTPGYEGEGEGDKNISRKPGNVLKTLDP
The experiment in a line: ELISA-based NRP1-VEGF-A165 protein binding assay (single concentration). The following applies: compounds 12.5 μM (Spike S1 100 nM), biotinylated VEGF-A165 10 nM; ± standard error of the mean, n = 11.

In test [2] the test system is pY1175 VEGFR2. The experiment in a line: In cell Western for detecting inhibition of VEGFR2 activation by VEGF-A165. It is filed as cell-based, mouse. The following applies: CAD cells.
For test [3], the system named is SNI rats. The experiment in a line: Spared nerve injury (SNI)-induced mechanical allodynia, paw withdrawal threshold. In kind it is in vivo, rats (Sprague Dawley, male). The following applies: day 21 after surgery, 2.14 mg/5 ml intrathecally, n=5. The method, then:
FIG. 8 is a line graph showing antagonism of NRP-1/VEGF-A signaling using compound 4. […] SNI elicited mechanical allodynia 21 days after surgery. Paw withdrawal thresholds for SNI rats (Sprague Dawley, male) administered saline (vehicle) or NRP-1 inhibitor (2.14 mg/5 ml) intrathecally (i.t.); n=5). P values, versus control, are indicated. Data are shown as mean±s.e.m. and were analyzed by non-parametric two-way analysis of variance where time was the within subject factor and treatment was the between subject factor (post hoc: Sidak). The experiments were analyzed by an investigator blinded to the treatment. […]
The assessment of tactile allodynia (i.e., a decreased threshold for paw withdrawal after probing with normally innocuous mechanical stimuli) involved testing the withdrawal threshold of the paw in response to probing with a series of calibrated fine (von Frey) filaments. […] The withdrawal threshold was determined by sequentially increasing and decreasing the stimulus strength (the ‘up and down’ method, and the data analyzed using the nonparametric method of Dixon (as described by Chaplan and Bach, J. Neurosci. Meth. 1994, 53, 55-63) with results expressed as the mean withdrawal threshold. The withdrawal threshold is a level that is statistically significant. Typically, greater than 50% deviation from the baseline could be allodynic.

For test [4], the target named is T1, NRP-1/VEGF-A interaction. The experiment in a line: ELISA-based NRP1-VEGF-A165 protein binding assay (concentration-response, IC50). The following applies: 20 nM biotinylated hVEGF-A165 with 4 μg/ml heparin, n=3, read-out: Calculated IC50 values of inhibiting the NRP-1/VEGF-A interaction. On the procedure: Plates (96-well, Nunc Maxisorp; Thermo Fisher Scientific, Waltham, MA, USA) were coated with human Neuropilin-1-Fc (200 ng per well, Cat #50-101-8343, Fisher, Hampton, NH) and incubated at 4° C. overnight. The following day, the plates were washed and blocked with 3% BSA in PBS to minimize non-specific adsorptive binding to the plates. EG00229 (Cat #6986, Tocris) or the indicated compounds were added at different concentrations and incubated for 30 min at room temperature prior to adding biotinylated human VEGF-A165 (Cat #BT10543-025, R&D systems) at 20 nM with 4 μg/ml of heparin. As a negative control, some wells received PBS containing 3% BSA and as a positive control only hVEGF-A165 was used. The plates were incubated at room temperature with shaking for 2 h. Next, the plates were washed with PBS 0.05% Tween to eliminate unbound protein. Bound biotinylated VEGF was detected by streptavidin-HRP (Cat #016-030-084, Jackson immunoResearch). Tetramethylbenzidine (Cat #DY999, R&D Systems, St. Louis, MO) was used as the colorimetric substrate. The optical density of each well was determined immediately, using a microplate reader (Multiskan Ascent; Thermo Fisher Scientific) set to 450 nm with a correction wavelength of 570 nm. Percentage of inhibition was calculated by the following formula: […]
where S is the optical density measured in the wells with the compounds, N is the optical density measured in the negative control wells and P is the optical density in the positive control wells. The IC50 was calculated using a non-linear regression function with GraphPad Prism Version 9. The data are presented as log (inhibitor) [M] versus normalized response-variable slope. Data are the means±S.E.M. of three independent experiments.
Finally, the ability of the compounds to interfere with the NRP-1NEGF-A interaction was evaluated using an enzyme linked immunosorbent assay (ELISA), as previously described (Moutal, et al., Pain 2021, 12(1), 243-252). Plates were coated with the extracellular domain of human NRP-1 (containing the a1a2 and the b1b2 regions) and the compounds were added to disrupt the NRP-1NEGF-A interaction. The biotinylated human VEGF-A used in the experiments described above (Moutal, et al., Pain 2021, 12(1), 243-252) was discontinued. For the instant studies, biotinylated hVEGF-A (Cat #BT10543-025, R&D systems) was used. Because of that, the known NRP-1 antagonist EG00229 and compound 4 from the above series of inhibitors (Moutal, et al., Pain 2021, 12(1), 243-252) were also tested in the instant studies.

Test [5] relates to VSV-eGFP-SARS-CoV-2. In kind it is cell-based.

`Cc1nc(N2CCOCC2)ncc1-c1cc(=O)[nH]c(Nc2ccccc2)n1` [Compound 4] had a Rel % inhibition in test [1] of 68 ± 5%. The “inhibition of basal VEGFR2 phosphorylation” value in test [2] (absence of stimulation by VEGF-A) is reported as “showed inhibition”. Besides, the “reversal of SNI-induced mechanical allodynia (paw withdrawal threshold)” value in test [3] was “reverses spared nerve injury (SNI)-induced mechanical allodynia”. Moreover, in test [4], the IC50 is 8.4 µM.

`O=C(/C=C/c1ccc(O)c(O)c1)O[C@@H](C(=O)O)[C@@H](O)C(=O)O` [Compound 17] showed a Rel % inhibition in test [1] of 12 ± 16%. In addition, the “inhibition of VSV-eGFP-SARS-CoV-2 antiviral activity” value in test [5] is reported as ~15%.

`NC(N)=NCCC[C@H](NC(=O)c1sccc1NS(=O)(=O)c1cccc2nsnc12)C(=O)O` [EG00229, reference compound] had a Rel % inhibition in test [1] of 33 ± 10%. Further, the “inhibition of VEGF-A stimulated increased phosphorylation of VEGFR2 (pY1175)” value in test [2] (compounds 12.5 μM or Spike 100 nM, 1 nM VEGF-A165, 1 hour) is recorded as “blocked”. The “inhibition of VSV-eGFP-SARS-CoV-2 antiviral activity” value in test [5] is reported as “ineffective”. Also, the IC50 in test [4] is 1370 µM.
